Like-named read-outs stand apart in the source and are kept apart here.
How the values were obtained:
[1] = parameters: method as in ref 47 = [47]; 47 Mitchell M , Balakrishnan M , Brizgys G , Cai R , Lansdon E , Mulato A , Osier M , Wang J , Yu H , Sakowicz R . 2017 . Novel non-catalytic site integrase inhibitor with improved resistance profile.; settings: precluded further clinical investigation; cited from earlier work
[2] = target: HIV-1 IN-LEDGF/p75 interaction (Human immunodeficiency virus type 1 group M subtype B, UniProt P12497); assay: biochemical
Description: The INLAIs were tested for the ability to inhibit the HIV-1 IN-LEDGF/p75 interaction in a homogeneous time-resolved fluorescence (HTRF) assay. Our assays used either full-length IN and LEDGF/p75 proteins or their respective minimally sufficient interaction domains: the CCD of HIV-1 IN and the IBD of LEDGF/p75 (Table 1).
HTRF-based CCD-IBD interaction, IN-LEDGF/p75 interaction and IN multimerization assays were performed as described previously ([12]).

[3] = tested on: VSV-G-pseudotyped NL4-3Δenv-luc; assay: microbe, parasite or virus in culture; assay type: cell-based, HIV-1; settings: Human immunodeficiency virus 1, NL43, MT4, read-out: EC50 in single-round infection
NL4-3 HIV-1 strain = assay: Multiple-round infection assay in MT4 cells, NL4-3; assay type: cell-based; settings: MT4 cells
HIV-1 IN = target: T1, HIV-1 IN (Human immunodeficiency virus type 1 group M subtype B, UniProt P12497); assay: HTRF IN multimerization assay; assay type: biochemical; settings: mean ± SD
T1 construct: made in house
Description: A key property of INLAIs is the ability to promote HIV-1 IN homo-multimerization ([39][–][42]). […] The maximal signal (plateau) in our IN aggregation assay corresponds to the highest HTRF signal increase under saturating INLAI concentration, relative to baseline level. Thus, MUT916, MUT884, MUT871, and MUT872 increased HIV-1 IN aggregation 3.7 to 4.4-fold, while BDM-2, BI-224436, and S-I-82 did so 5 to 6-fold (Table 1).

HXB2 HIV-1 strain = assay: Multiple-round infection assay in MT4 cells, HXB2; assay type: cell-based; settings: Human immunodeficiency virus 1, HXB2; multiple-round infection, MT4 cells; mean ± SD, n > 5; read-out: EC50 HXB2
How it was run: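 MT4 cells at 10^6/mL were infected with HIV-1 at MOI 0.001 for 2 h in the presence of compound dilutions. Cell viability, measured by CellTiter-Glo luminescence, served as the read-out of protection in this multiple-round infection.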

[4] = tested on: HIV-1 strains resistant to INSTIs, NRTIs, NNRTIs or PIs; assay type: cell-based; settings: PI-resistant virus
How it was run: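 NL4-3-based recombinant mutants and drug-resistant clinical isolates; exponentially growing MT4 cells (10^6/mL) infected at MOI 0.001 for 2 h with compound at varying concentrations. Protection quantified as cell viability by CellTiter-Glo luminescence.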

[5] = tested on: lab-adapted and clinical HIV-1 isolates; assay: Infection assays in primary T CD4+ lymphocytes; assay type: cell-based; settings: Human immunodeficiency virus 1, Lymphocyte
[6] = tested on: NL4-3 HIV-1 with INLAI-selected IN single point mutations; assay type: cell-based
[7] = tested on: primary HIV-1 isolates with polymorphisms at IN positions 124 and 125; assay: Multiple-round infection of MT4 cells with primary HIV-1 isolates polymorphic at IN positions 124 and 125; assay type: cell-based; settings: primary isolate
How it was run: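 Exponentially growing MT4 cells at 10^6/mL infected for 2 h at MOI 0.001 in the presence of varying compound concentrations. Cell viability quantified by CellTiter-Glo luminescence.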

[8] = tested on: recombinant NL4-3 viruses with polymorphisms at IN positions 124 and 125; assay: Multiple-round infection of MT4 cells with recombinant NL4-3 viruses polymorphic at IN positions 124 and 125; assay type: cell-based, HIV-1
How it was run: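 MT4 cells (10^6/mL) infected with NL4-3 carrying IN 124/125 polymorphisms (15 combinations) at MOI 0.001 for 2 h with compound present. Viability read by CellTiter-Glo luminescence; EC50 expressed as fold change versus wild-type NL4-3 (Thr124/Thr125).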

[9] = Cytotoxicity assay in MT4 cells; assay type: cell-based; settings: human, MT4 cells (proliferating human T-cell line), CellTiter-Glo
Description: Growth inhibition was monitored in a proliferating human T-cell line (MT4) with different concentrations of compounds, using the CellTiter-Glo luminescent reagent (Promega), as previously described ([12]).

[10] = target: CCD of HIV-1 IN and IBD of LEDGF/p75 (Human immunodeficiency virus type 1 group M subtype B, UniProt P12497); assay: biochemical
[11] = parameters: method as in ref 22 = [22]; 22 Meng X , Donazzolo Y , Kim B , Kim K . 2022 . The first-in-human clinical trial of STP0404, a novel potent HIV-1 allosteric integrase inhibitor . Poster PESUB2624th AIDS Conference , Montreal, Cana; settings: cited from earlier work

In the case of Cc1cc2nc(-c3ccc4c(c3)c(C3CCN(C5COC5)CC3)nn4C)sc2c(-c2ccc(Cl)cc2)c1[C@H](OC(C)(C)C)C(=O)O [GS-9822], the toxicity [1] is given as “renal and urinary bladder toxicity”.

With Cc1cc(NS(=O)(=O)CC2CCCCC2)c(C)c(C(OC(C)(C)C)C(=O)O)c1-c1ccc2c(c1)CCCO2 (stereo not drawn) [S-I-82, reference compound] the IC50 [2] was 820 ± 380 nM, the EC50 [3] was 9200 ± 1100 nM and the EC90 (NL4-3 HIV-1 strain; Human immunodeficiency virus 1, NL43, multiple-round infection, from dose response curves, read-out: EC90 NL4-3) was 21 ± 7.2 nM. For the same compound, the EC50 (NL4-3 HIV-1 strain; Human immunodeficiency virus 1, NL43, multiple-round infection, mean ± SD, n > 5, read-out: EC50 NL4-3) was 12 ± 3 nM, the “Selectivity index CC50/EC50 NL4-3” value (NL4-3 HIV-1 strain) was 2,333 and the AC50 (HIV-1 IN; concentration for 50% maximum activation of multimerization) was 47 ± 31 nM. The “IN multimerization Plateau” value (HIV-1 IN; maximum multimerization reached versus baseline) was 500 ± 43%, the EC50 (HXB2 HIV-1 strain) was 4.1 ± 0.7 nM and the “Fold change in EC50 relative to NL4-3, ARP-4595” value [4] was 1. The “Fold change in EC50 relative to NL4-3, ARP-4596” value [4] was 0.5, the “Fold change in EC50 relative to NL4-3, ARP-11801” value [4] was 1 and the “Fold change in EC50 relative to NL4-3, ARP-11803” value [4] was 1. For the same compound, the “Fold change in EC50 relative to NL4-3, ARP-11807” value [4] was 1, the “Fold change in EC50 relative to NL4-3, ARP-11808” value [4] was 1 and the EC50 ([5]; read-out: EC50 33913N (B)) was 4.4 ± 1.9 nM. For the same compound, the EC50 ([5]; read-out: EC50 HXB2 (B)) was 5.2 ± 3.9 nM, the EC50 ([5]; read-out: EC50 KER2008 (A)) was 11 ± 2 nM and the EC50 ([5]; read-out: EC50 NL4-3 (B)) was 9.9 ± 1.1 nM. The EC50 ([5]; read-out: EC50 NP1525 (CRF01_AE)) was 10 ± 4 nM, the EC50 ([5]; read-out: EC50 NP1538 (B)) was 8.6 ± 0.5 nM and the “EC50 fold change compared to wild type NL4-3, A128T” value [6] was 4. The “EC50 fold change compared to wild type NL4-3, H171Q” value [6] was 2, the “EC50 fold change compared to wild type NL4-3, N222K” value [6] was 1 and the “EC50 fold change compared to wild type NL4-3, T174I” value [6] was 15. The “EC50 fold change compared to wild type NL4-3, Y99H” value [6] was 2, the “Fold change in EC50 relative to parental NL4-3, CAM2BBY (CRF02)” value ([7]; IN 124/125 AA) was 2 and the “Fold change in EC50 relative to parental NL4-3, E0836M4 (D)” value ([7]; IN 124/125 AA) was 1. The “Fold change in EC50 relative to parental NL4-3, KER2008 (A)” value ([7]; IN 124/125 AA) was 1, the “Fold change in EC50 relative to parental NL4-3, NP1525 (CRF01)” value ([7]; IN 124/125 AA) was 2 and the “Fold change in EC50 relative to parental NL4-3, NP1695 (CRF02)” value ([7]; IN 124/125 AA) was 1. For the same compound, the “Fold change in EC50 relative to parental NL4-3, TZA125 (C)” value ([7]; IN 124/125 AA) was 1, the “Fold change in EC50 relative to parental NL4-3, KSM4030 (A)” value ([7]; IN 124/125 GA) was 6 and the “Fold change in EC50 relative to parental NL4-3, vGA (C)” value ([7]; IN 124/125 GA) was 4. The “Fold change in EC50 relative to parental NL4-3, 99ET14 (C)” value ([7]; IN 124/125 NA) was 210, the “Fold change in EC50 relative to parental NL4-3, NP1538 (B)” value ([7]; IN 124/125 NA) was 1 and the “Fold change in EC50 relative to parental NL4-3, vNA_1 (B)” value ([7]; IN 124/125 NA) was 23. For the same compound, the “Fold change in EC50 relative to parental NL4-3, vNA_2 (CRF02)” value ([7]; IN 124/125 NA) was 23, the “Fold change in EC50 relative to parental NL4-3, vNV (B)” value ([7]; IN 124/125 NV) was 34 and the “Fold change in EC50 relative to parental NL4-3, vSA_1 (B)” value ([7]; IN 124/125 SA) was 12. For the same compound, the “Fold change in EC50 relative to parental NL4-3, vSA_2 (CRF02)” value ([7]; IN 124/125 SA) was 4, the “Fold change in EC50 relative to parental NL4-3, vTA_1 (B)” value ([7]; IN 124/125 TA) was 3 and the “Fold change in EC50 relative to parental NL4-3, vTA_2 (CRF02)” value ([7]; IN 124/125 TA) was 3. For the same compound, the “Fold change in EC50 relative to parental NL4-3, AA” value ([8]; recombinant NL4-3, IN 124/125 AA) was 1, the “Fold change in EC50 relative to parental NL4-3, AM” value ([8]; recombinant NL4-3, IN 124/125 AM) was 1 and the “Fold change in EC50 relative to parental NL4-3, AT” value ([8]; recombinant NL4-3, IN 124/125 AT) was 1. The “Fold change in EC50 relative to parental NL4-3, AV” value ([8]; recombinant NL4-3, IN 124/125 AV) was 2, the “Fold change in EC50 relative to parental NL4-3, GA” value ([8]; recombinant NL4-3, IN 124/125 GA) was 3 and the “Fold change in EC50 relative to parental NL4-3, GT” value ([8]; recombinant NL4-3, IN 124/125 GT) was 3. The “Fold change in EC50 relative to parental NL4-3, NA” value ([8]; recombinant NL4-3, IN 124/125 NA) was 10, the “Fold change in EC50 relative to parental NL4-3, NT” value ([8]; recombinant NL4-3, IN 124/125 NT) was 5 and the “Fold change in EC50 relative to parental NL4-3, NV” value ([8]; recombinant NL4-3, IN 124/125 NV) was 5. For the same compound, the “Fold change in EC50 relative to parental NL4-3, SA” value ([8]; recombinant NL4-3, IN 124/125 SA) was 4, the “Fold change in EC50 relative to parental NL4-3, ST” value ([8]; recombinant NL4-3, IN 124/125 ST) was 2 and the “Fold change in EC50 relative to parental NL4-3, TA” value ([8]; recombinant NL4-3, IN 124/125 TA) was 2. The “Fold change in EC50 relative to parental NL4-3, TM” value ([8]; recombinant NL4-3, IN 124/125 TM) was 1, the “Fold change in EC50 relative to parental NL4-3, TV” value ([8]; recombinant NL4-3, IN 124/125 TV) was 1 and the CC50 [9] was 28000 ± 3000 nM. The IC50 [10] was 430 ± 130 nM.

For Cc1nc2c(c(C)c(C)n2Cc2cnn(C)c2)c(-c2ccc(Cl)cc2)c1[C@H](OC(C)(C)C)C(=O)O [STP0404, Pirmitegravir], the “tolerability in clinical phase I study” value [11] is listed as “Well tolerated”.

Reference: article PMC10353390, “Biological and Structural Analyses of New Potent Allosteric Inhibitors of HIV-1 Integrase” (Antimicrobial Agents and Chemotherapy, 2023)
